According to ChEMBL document CHEMBL5728923, “Cyclin dependent kinase inhibitors” (2022):

Molecular target: Cyclin-dependent kinase 4/cyclin D1 (Homo sapiens, UniProt P11802+P24385)
Assay: Mobility Shift Assay : The purpose CDK4/Cyclin D1 assay is to evaluate the inhibition (% inhibition, Kiapp and Ki values) in the presence of small molecule inhibitors by using a fluorescence based microfluidic mobility shift assay. CDK4/Cyclin D1 catalyzes the production of ADP from ATP that accompanies the phosphoryl transfer to the substrate peptide 5-FAM-Dyrktide (5-FAM-[…]) (SEQ ID NO:1). The mobility shift assay electrophoretically separates the fluorescently labeled peptides (substrate and phosphorylated product) following the kinase reaction. Both substrate and product are measured and the ratio of these values is used to generate % Conversion of substrate to product by the LabChip EZ Reader. […] The reaction was stopped after 195 minutes by the addition of 50 μL of 30 mM EDTA. Ki determinations were made from a plot of the fractional velocity as a function of inhibitor concentration fit to the Morrison equation with the enzyme concentration as a variable.
Format: protein-complex assay

Sequence of Cyclin-dependent kinase 4/cyclin D1 (P11802 whole entry): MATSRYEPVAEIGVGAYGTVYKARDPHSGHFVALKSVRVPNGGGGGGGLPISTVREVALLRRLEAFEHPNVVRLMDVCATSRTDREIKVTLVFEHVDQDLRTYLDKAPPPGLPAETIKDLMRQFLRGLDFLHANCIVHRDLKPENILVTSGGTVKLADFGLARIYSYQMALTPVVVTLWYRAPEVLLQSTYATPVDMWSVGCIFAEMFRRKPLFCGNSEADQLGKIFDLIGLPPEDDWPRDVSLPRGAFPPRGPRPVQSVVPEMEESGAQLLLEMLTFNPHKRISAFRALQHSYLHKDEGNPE
Sequence of Cyclin-dependent kinase 4/cyclin D1 (P24385 whole entry): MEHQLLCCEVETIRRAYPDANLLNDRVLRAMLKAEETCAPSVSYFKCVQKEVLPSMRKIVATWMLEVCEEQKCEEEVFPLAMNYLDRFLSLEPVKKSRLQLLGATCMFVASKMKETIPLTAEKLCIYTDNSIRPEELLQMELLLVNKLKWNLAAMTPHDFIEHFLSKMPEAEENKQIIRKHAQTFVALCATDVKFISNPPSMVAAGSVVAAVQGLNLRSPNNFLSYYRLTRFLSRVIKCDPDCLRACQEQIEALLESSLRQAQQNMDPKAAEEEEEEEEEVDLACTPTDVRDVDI

## CC(C)n1c([C@H](C)O)nc2c(F)cc(-c3cc(N[C@@H]4CCN(S(C)(=O)=O)C[C@H]4O)ncc3Cl)cc21 (single isomer, unassigned)
  Ki: 0.1 nM
